Reference: PubChem BioAssay AID1845219 (Molecular Pharmacology Branch, DTP, NCI, 2023)

Test system: SYO-1 tumor spheroids, viability % test/control
Test: Anticancer human tumor SYO-1 cell line growth inhibition;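 further: spheroids exposed to agents for 7 days before viability read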;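 on viability, T/C: 100% = DMSO vehicle control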
Conditions: spheroids with HUVEC and MSC; for IC50: curve of first compound; for viability, T/C: stronger effect = lower value
Method in brief: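 Complex spheroids of malignant cells with endothelial cells and mesenchymal stem cells; agents alone or combined, from near clinical Cmax (or 10 microM if unknown) down in half-log steps, 0.25% DMSO final.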

[1] = second compound 0.003 µM, first compound 0.0316 µM
[2] = second compound 0.003 µM, first compound 0.1 µM
[3] = second compound 0.003 µM, first compound 0.316 µM
[4] = second compound 0.003 µM, first compound 1 µM
[5] = second compound 0.003 µM, first compound 3.16 µM
[6] = second compound 0.003 µM, first compound 10 µM
[7] = second compound 0.00949 µM, first compound 0.0316 µM
[8] = second compound 0.00949 µM, first compound 0.1 µM
[9] = second compound 0.00949 µM, first compound 0.316 µM
[10] = second compound 0.00949 µM, first compound 1 µM
[11] = second compound 0.00949 µM, first compound 3.16 µM
[12] = second compound 0.00949 µM, first compound 10 µM
[13] = second compound 0.03 µM, first compound 0.0316 µM
[14] = second compound 0.03 µM, first compound 0.1 µM
[15] = second compound 0.03 µM, first compound 0.316 µM
[16] = second compound 0.03 µM, first compound 1 µM
[17] = second compound 0.03 µM, first compound 3.16 µM
[18] = second compound 0.03 µM, first compound 10 µM
[19] = second compound 0.0949 µM, first compound 0.0316 µM
[20] = second compound 0.0949 µM, first compound 0.1 µM
[21] = second compound 0.0949 µM, first compound 0.316 µM
[22] = second compound 0.0949 µM, first compound 1 µM
[23] = second compound 0.0949 µM, first compound 3.16 µM
[24] = second compound 0.0949 µM, first compound 10 µM
[25] = second compound 0.3 µM, first compound 0.0316 µM
[26] = second compound 0.3 µM, first compound 0.1 µM
[27] = second compound 0.3 µM, first compound 0.316 µM
[28] = second compound 0.3 µM, first compound 1 µM
[29] = second compound 0.3 µM, first compound 3.16 µM
[30] = second compound 0.3 µM, first compound 10 µM

Row | SMILES | IC50 (second compound 0.003 µM) | IC50 (second compound 0.00949 µM) | IC50 (second compound 0.03 µM) | IC50 (second compound 0.0949 µM) | IC50 (second compound 0.3 µM) | viability, T/C [1] | viability, T/C [2] | viability, T/C [3] | viability, T/C [4] | viability, T/C [5] | viability, T/C [6] | viability, T/C [7] | viability, T/C [8] | viability, T/C [9] | viability, T/C [10] | viability, T/C [11] | viability, T/C [12] | viability, T/C [13] | viability, T/C [14] | viability, T/C [15] | also measured
1 | CC1COCCN1c1cc(-c2ccnn2C)c2ccnc(-c3ccn[nH]3)c2n1 (stereo not given) + CC[C@@]1(O)C(=O)OCc2c1cc1n(c2=O)Cc2cc3c(CN(C)C)c(O)ccc3nc2-1 | < 31.6 nM | < 31.6 nM | < 31.6 nM | < 31.6 nM | < 31.6 nM | 2.41% | 1.6% | 1.52% | 1.01% | 0.46% | 0.49% | 1.89% | 1.76% | 1.42% | 0.94% | 0.47% | 0.42% | 1.75% | 1.64% | 1.18% | viability, T/C [16]: 0.74%; viability, T/C [17]: 0.43%; viability, T/C [18]: 0.42%; viability, T/C [19]: 1.31%; viability, T/C [20]: 1.48%; viability, T/C [21]: 0.96%; viability, T/C [22]: 0.68%; viability, T/C [23]: 0.44%; viability, T/C [24]: 0.41%; viability, T/C [25]: 1.79%; viability, T/C [26]: 1.55%; viability, T/C [27]: 1.05%; viability, T/C [28]: 0.66%; viability, T/C [29]: 0.47%; viability, T/C [30]: 0.49%
2 | COc1cc(C)[nH]c(=O)c1CN1CCc2c(Cl)cc(C(OC)C3COC3)c(Cl)c2C1=O (stereo not given) + CC[C@@]1(O)C(=O)OCc2c1cc1n(c2=O)Cc2cc3c(CN(C)C)c(O)ccc3nc2-1 | 777 nM | < 31.6 nM | < 31.6 nM | < 31.6 nM | < 31.6 nM | 99.8% | 96.1% | 71.5% | 44.5% | 33.9% | 32.8% | 22.7% | 18.1% | 8.42% | 5.82% | 5.77% | 4.94% | 1.81% | 2.29% | 2.26% | viability, T/C [16]: 2.14%; viability, T/C [17]: 2.28%; viability, T/C [18]: 2.42%; viability, T/C [19]: 1.63%; viability, T/C [20]: 1.59%; viability, T/C [21]: 1.59%; viability, T/C [22]: 1.68%; viability, T/C [23]: 1.72%; viability, T/C [24]: 1.9%; viability, T/C [25]: 2%; viability, T/C [26]: 2.17%; viability, T/C [27]: 2.06%; viability, T/C [28]: 1.88%; viability, T/C [29]: 1.89%; viability, T/C [30]: 2.12%
3 | Cc1cc(C)c(CNC(=O)c2cc(-c3ccc(CN4CCOCC4)cc3)cc3c2cnn3C2CCCC2)c(=O)[nH]1 + CC[C@@]1(O)C(=O)OCc2c1cc1n(c2=O)Cc2cc3c(CN(C)C)c(O)ccc3nc2-1 | 8350 nM | < 31.6 nM | < 31.6 nM | < 31.6 nM | < 31.6 nM | 89.3% | 90.5% | 91.4% | 91.9% | 80.6% | 43.9% | 10.4% | 9.41% | 15.2% | 12.5% | 8.6% | 3.78% | 1.69% | 1.58% | 1.52% | viability, T/C [16]: 1.59%; viability, T/C [17]: 1.68%; viability, T/C [18]: 2.01%; viability, T/C [19]: 1.54%; viability, T/C [20]: 1.74%; viability, T/C [21]: 1.49%; viability, T/C [22]: 1.89%; viability, T/C [23]: 2.19%; viability, T/C [24]: 1.93%; viability, T/C [25]: 1.86%; viability, T/C [26]: 1.8%; viability, T/C [27]: 2.05%; viability, T/C [28]: 2.19%; viability, T/C [29]: 2.23%; viability, T/C [30]: 1.83%
4 | [2H]c1nc(C)nc([2H])c1-c1cc(NC[C@@H](C)c2cccc3c(C(=O)NC)ccnc23)ncn1 + CC[C@@]1(O)C(=O)OCc2c1cc1n(c2=O)Cc2cc3c(CN(C)C)c(O)ccc3nc2-1 | > 10000 nM | < 31.6 nM | < 31.6 nM | < 31.6 nM | < 31.6 nM | 92.5% | 99.4% | 94.6% | 93% | 92.3% | 93.7% | 25.9% | 31.1% | 28.9% | 20% | 19.2% | 17.2% | 1.86% | 2.19% | 1.77% | viability, T/C [16]: 2.01%; viability, T/C [17]: 1.73%; viability, T/C [18]: 1.75%; viability, T/C [19]: 1.57%; viability, T/C [20]: 1.61%; viability, T/C [21]: 1.6%; viability, T/C [22]: 1.39%; viability, T/C [23]: 1.9%; viability, T/C [24]: 1.55%; viability, T/C [25]: 1.71%; viability, T/C [26]: 1.76%; viability, T/C [27]: 2.05%; viability, T/C [28]: 1.52%; viability, T/C [29]: 1.73%; viability, T/C [30]: 2.12%
